Measurements taken from article PMC10353390, “Biological and Structural Analyses of New Potent Allosteric Inhibitors of HIV-1 Integrase” (Antimicrobial Agents and Chemotherapy, 2023).

Assays:
[1] = system: HXB2 HIV-1 strain; experiment: Multiple-round infection assay in MT4 cells, HXB2; assay type: cell-based; settings: Human immunodeficiency virus 1, HXB2; multiple-round infection, MT4 cells; mean ± SD, n > 5; read-out: EC50 HXB2
Outline: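 Antiviral read-out was CellTiter-Glo luminescent viability of exponentially growing MT4 cells (10^6/mL). Cells were exposed to HIV-1 for 2 h at an MOI of 0.001 while compound was present at varying concentrations.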

[2] = system: NL4-3 HIV-1 strain; experiment: Multiple-round infection assay in MT4 cells, NL4-3; assay type: cell-based; settings: MT4 cells
[3] = system: VSV-G-pseudotyped NL4-3Δenv-luc; experiment: microbe, parasite or virus in culture; assay type: cell-based, HIV-1
[4] = system: recombinant NL4-3 viruses with polymorphisms at IN positions 124 and 125; experiment: Multiple-round infection of MT4 cells with recombinant NL4-3 viruses polymorphic at IN positions 124 and 125; assay type: cell-based, HIV-1
Outline: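 EC50 fold change relative to wild-type TT NL4-3 was derived from CellTiter-Glo viability of exponentially growing MT4 cells (10^6/mL). Cells were exposed for 2 h, with compounds, to NL4-3 clones bearing one of 15 IN 124/125 variants at MOI 0.001.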

[5] = system: primary HIV-1 isolates with polymorphisms at IN positions 124 and 125; experiment: Multiple-round infection of MT4 cells with primary HIV-1 isolates polymorphic at IN positions 124 and 125; assay type: cell-based; settings: primary isolate
Outline: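 Antiviral potency read as protection of cell viability (CellTiter-Glo luminescence). Infection at MOI 0.001 lasted 2 h with compound present at a range of concentrations, using MT4 cells at 10^6/mL in exponential growth.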

[6] = system: HIV-1 strains resistant to INSTIs, NRTIs, NNRTIs or PIs; assay type: cell-based
Outline: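 Cell viability (CellTiter-Glo luminescence) served as read-out in MT4 cells at 10^6/mL, infected 2 h at MOI 0.001 in presence of graded compound concentrations. Viruses: resistance-mutation recombinants in NL4-3 backbone plus resistant clinical isolates.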

[7] = system: NL4-3 HIV-1 clone; experiment: Combination antiviral activity assay (MacSynergy II) in NL4-3-infected MT4 cells; assay type: cell-based
Excerpt: To this end, we evaluated the activity of BDM-2 in the presence of approved antiretroviral drugs against NL4-3 HIV-1 clone replicating on MT4 cells. Examples of MacSynergy plots obtained for the combinations of BDM-2 with the protease inhibitor lopinavir (LPV) or the INSTI EVG are shown in Fig. 3A and B, respectively. The results indicated no antagonism of ascending concentrations of BDM-2 with the antiviral activity of LPV or EVG and vice versa. Next, we extended these analyses to a panel of 16 FDA-approved antiretroviral drugs, including 3 protease inhibitors, 6 NRTIs, 4 NNRTIs, and 3 INSTIs.
BDM-2, as lead compound representative of the series, was used in these experiments. Combination studies were performed in MT4 cells infected with NL4-3, as previously described ([3]). Multiple concentrations of BDM-2 were tested in checkerboard pattern in the presence and absence of dilutions of 16 representative approved anti-HIV drugs of different classes. Compound combinations were analyzed by calculations to quantify deviation from additivity at the 50% level. Data were analyzed as described by Prichard and Shipman by using the MacSynergy II program ([54]). Synergy volumes in the range of −25 to +25 define additivity; −50 minor antagonism, +50 minor synergy, and up to 100 and >100 moderate and strong synergy, respectively. Combinations of RBV with AZT or ddI were used as controls for antagonism and synergy, respectively.

[8] = target: HIV-1 IN-LEDGF/p75 interaction (Human immunodeficiency virus type 1 group M subtype B, UniProt P12497); experiment: biochemical
[9] = target: CCD of HIV-1 IN and IBD of LEDGF/p75 (Human immunodeficiency virus type 1 group M subtype B, UniProt P12497); experiment: biochemical
[10] = INSTI-resistant, NL4-3 background
[11] = INSTI-resistant, primary patient-derived strain

## Cc1ccc(C2CC2)c(-c2ccc3c(c2)CCCO3)c1[C@H](OC(C)(C)C)C(=O)O [BDM-2]
[1]
  EC50: 4.5 ± 1.2 nM
[2]; Human immunodeficiency virus 1, NL43, multiple-round infection, from dose response curves, read-out: EC90 NL4-3
  EC90: 13 ± 5.1 nM
[2]; Human immunodeficiency virus 1, NL43, multiple-round infection, mean ± SD, n > 5, read-out: EC50 NL4-3
  EC50: 8.7 ± 2.8 nM
[2]
  Selectivity index CC50/EC50 NL4-3: 7,931
[3]
  EC50 ratio (single/multiple-round infection): 161
[3]; Human immunodeficiency virus 1, NL43, MT4, read-out: EC50 in single-round infection
  EC50: 1400 ± 300 nM
[4]; recombinant NL4-3, IN 124/125 AA
  Fold change in EC50 relative to parental NL4-3, AA: 1
[4]; recombinant NL4-3, IN 124/125 AM
  Fold change in EC50 relative to parental NL4-3, AM: 0.4
[4]; recombinant NL4-3, IN 124/125 AT
  Fold change in EC50 relative to parental NL4-3, AT: 1
[4]; recombinant NL4-3, IN 124/125 AV
  Fold change in EC50 relative to parental NL4-3, AV: 2
[4]; recombinant NL4-3, IN 124/125 GA
  Fold change in EC50 relative to parental NL4-3, GA: 1
[4]; recombinant NL4-3, IN 124/125 GT
  Fold change in EC50 relative to parental NL4-3, GT: 1
[4]; recombinant NL4-3, IN 124/125 NA
  Fold change in EC50 relative to parental NL4-3, NA: 1
[4]; recombinant NL4-3, IN 124/125 NT
  Fold change in EC50 relative to parental NL4-3, NT: 1
[4]; recombinant NL4-3, IN 124/125 NV
  Fold change in EC50 relative to parental NL4-3, NV: 1
[4]; recombinant NL4-3, IN 124/125 SA
  Fold change in EC50 relative to parental NL4-3, SA: 1
[4]; recombinant NL4-3, IN 124/125 ST
  Fold change in EC50 relative to parental NL4-3, ST: 1
[4]; recombinant NL4-3, IN 124/125 TA
  Fold change in EC50 relative to parental NL4-3, TA: 1
[4]; recombinant NL4-3, IN 124/125 TM
  Fold change in EC50 relative to parental NL4-3, TM: 0.3
[4]; recombinant NL4-3, IN 124/125 TV
  Fold change in EC50 relative to parental NL4-3, TV: 1
[5]; IN 124/125 AA
  Fold change in EC50 relative to parental NL4-3, CAM2BBY (CRF02): 2
  Fold change in EC50 relative to parental NL4-3, E0836M4 (D): 1
  Fold change in EC50 relative to parental NL4-3, KER2008 (A): 1
  Fold change in EC50 relative to parental NL4-3, NP1525 (CRF01): 1
  Fold change in EC50 relative to parental NL4-3, NP1695 (CRF02): 2
  Fold change in EC50 relative to parental NL4-3, TZA125 (C): 0.4
[5]; IN 124/125 GA
  Fold change in EC50 relative to parental NL4-3, KSM4030 (A): 2
  Fold change in EC50 relative to parental NL4-3, vGA (C): 4
[5]; IN 124/125 NA
  Fold change in EC50 relative to parental NL4-3, 99ET14 (C): 1
  Fold change in EC50 relative to parental NL4-3, NP1538 (B): 2
  Fold change in EC50 relative to parental NL4-3, vNA_1 (B): 2
  Fold change in EC50 relative to parental NL4-3, vNA_2 (CRF02): 3
[5]; IN 124/125 NV
  Fold change in EC50 relative to parental NL4-3, vNV (B): 2
[5]; IN 124/125 SA
  Fold change in EC50 relative to parental NL4-3, vSA_1 (B): 3
  Fold change in EC50 relative to parental NL4-3, vSA_2 (CRF02): 3
[5]; IN 124/125 TA
  Fold change in EC50 relative to parental NL4-3, vTA_1 (B): 2
  Fold change in EC50 relative to parental NL4-3, vTA_2 (CRF02): 1
[6]; [10]
  Fold change in EC50 relative to NL4-3, E92Q: 1
  Fold change in EC50 relative to NL4-3, G140S: 1
  Fold change in EC50 relative to NL4-3, G140S/Q148H: 1
  Fold change in EC50 relative to NL4-3, N155H: 1
  Fold change in EC50 relative to NL4-3, Q148H: 1
  Fold change in EC50 relative to NL4-3, Y143R: 1
[6]; [11]
  Fold change in EC50 relative to NL4-3, E92Q/N155H (pat.): 1
  Fold change in EC50 relative to NL4-3, G140S/Q148H (pat.): 1
  Fold change in EC50 relative to NL4-3, T97A/N155H (pat.): 1
[6]; NRTI-resistant clone
  Fold change in EC50 relative to NL4-3, NLAY351717: 2
[6]; NRTI/NNRTI-resistant clone
  Fold change in EC50 relative to NL4-3, NLAY351753: 1
[6]; NRTI/NNRTIs group, NL4-3 background
  Fold change in EC50 relative to NL4-3, K103N/Y181C: 1
[6]; PI-resistant virus
  Fold change in EC50 relative to NL4-3, ARP-4595: 1
  Fold change in EC50 relative to NL4-3, ARP-4596: 0.5
  Fold change in EC50 relative to NL4-3, ARP-11801: 1
  Fold change in EC50 relative to NL4-3, ARP-11803: 1
  Fold change in EC50 relative to NL4-3, ARP-11807: 1
  Fold change in EC50 relative to NL4-3, ARP-11808: 1
[7]; 3 protease inhibitors, 6 NRTIs, 4 NNRTIs, 3 INSTIs, MacSynergy
  interaction with a panel of 16 FDA-approved antiretroviral drugs: no antagonism
[7]; MacSynergy synergy volume
  interaction with lopinavir (LPV): strong synergy (up to 100 and >100 moderate and strong synergy, respectively)
  interaction with some of the remaining drugs, including the INSTIs: moderate synergy (up to 100 and >100 moderate and strong synergy, respectively)
[8]
  IC50: 47 ± 14 nM
[9]
  IC50: 150 ± 30 nM
